US8486464B2, “Herbal composition for angina pectoris, method to prepare same and uses thereof” (Tasly Pharmaceutical Group Co. Ltd., priority 2000, dated 2013)
Read-outs that look alike come from different tables or passages of the source. Marks after values point to notes of the source that are not given here.

Experiments:
cAMP [1] = assay: cAMP content in rat blood plasma; assay type: in vivo; conditions: Aminophylline 30 mg/kg, DSP 50 mg/kg
Procedure: • 6. Effects on cAMP content in rat blood plasma. Blood cAMP content was tested by radioimmunoassay.

cAMP [2] = assay: cAMP content in rabbit blood platelets; assay type: in vivo; conditions: per mg protein; Aminophylline 0.6 mg/kg, DSP 1.0 mg/kg
Procedure: • 5. Effects on cAMP content in rabbit blood platelets. cAMP content is tested by radioimmunoassay. Protein content is measured by the Hartree Method.

blood stasis = assay: Blood flow (Hb, Lb, P, air flow), DSP vs aspirin; assay type: in vivo, human; parameters: unit not given here
Description: Hemorrhage at the atherosclerotic lesions induces platelet activation, coronary thrombosis and blood stasis resulting in impaired blood flow. Thus to improve blood flow, chronic administration of the platelet-activation inhibitor aspirin is recommended for patients with angina. The efficacy of DSP and aspirin improving blood flow was compared by evaluating [Hb, Lb, P and air flow]. DSP improves blood flow as efficiently as aspirin. […].

thrombosis = assay: Experimental thrombosis in rats (Umetsu method); assay type: in vivo; conditions: experimental thrombo-formation
Description: • 3. Effects on experimental thrombosis in rats. The Umetsu method is used to carry out the experiment.

blood viscosity = assay: Hyperlipidemia, DSP vs aspirin: blood flow; assay type: in vivo, human
Procedure: (§1) 1.1 Sample. 53 patients were divided into 2 groups, at random: 25 patients in Treatment group (DSP group), and 28 patients in Control group (aspirin group).
(§2) The medication lasted for 6 months. 50 mg enteric aspirin was given to the Control group, 1 time/day orally.
(§3) 1.3 Standard. a) Measurement of IMT (Arterial tunica intima-tunica media). The horizontal and vertical transactions of the whole-length aorta, carotis communis, exterior artery, and subclavial artery were checked 1, 2, 3, and 6 months after treatment. The thickest part of the IMT was measured and recorded. b) Blood flow included whole blood high-viscosity (hHb), whole blood low-viscosity (hLb), plasma viscosity (hP), Aggregation Index of Red blood cells (AIR) etc. c) Measurement of blood lipoprotein included Total blood Cholesterol (TC) and Triglycerides (TG). D) Statistical treatment by matching t statistic testing.

arterial IMT = assay: Hyperlipidemia, DSP vs aspirin: arterial IMT; assay type: in vivo, human
Procedure: as §1, §2, §3

cardiac arrhythmia = assay: Cardiac arrhythmia caused by exogenous free radicals, Langendorff rat heart; parameters: species or system Wistar rat; conditions: 1 mg/L verapamil; 50 mg/L DSP; free radicals alone 100%
Procedure: Langendorff perfusion device was used to pour ferrous sulfate (0.25 mmol/L)/citrate (1.0 mmol/L) into the Wistar rat's artificial heart. The model of free radicals causing heart rhythm irregularity was replicated to observe the effects of DSP.
(1) Blank group (Normal control). Reperfused with perfusion solution for 45 mins continuously. The change in electrocardiographic pattern was observed.
(2) SP group. DSP was added in 50 mg/L of perfusion solution and perfused for 45 mins continuously. The change in electrocardiographic pattern was observed.
(3) Free-radical-damaging group (Free radicals). After pre-perfusing the artificial heart for 15 mins, it was reperfused with perfusion solution containing ferrous sulfate (0.25 mmol/L)/citrate (1.0 mmol/L) for 30 mins continuously. The change in electrocardiographic pattern was observed.
(4) DSP-protected group (DSP+free radicals): DSP was added into 50 mg/L of perfusion solution and pre-perfused for 15 mins. Ferrous sulfate (0.25 mmol/L/citrate (1.0 mmol/L) was added to the perfusion solution and then infuse for 30 mins continuously. The change in electrocardiographic pattern was observed.
(5) Verapamil-protected group (verapamil+free radicals). […] of verapamil was added to the perfusion solution and preperfused for 15 mins. […]

liver TG = assay: High-fats rabbits: liver TG and liver coefficient; assay type: in vivo; conditions: DSP 4 g/kg, Simvastatin 1 mg/kg
Procedure: (§4) 1.1 Experimental Groups. (1) Normal control group (8 rabbits) normal feeding; (2) High-fats group: High-fats feeding. All were fed for 4 weeks. Weight and lipoprotein in the blood were measured. The high-fats group was divided into 4 sub-groups (12 rabbits in each sub-group). 1. High-fats control group, 2. High-dosage of DSP group (4 g dosage/kg/day), 3. Low-dosage DSP group (2 g dosage/kg/day), and 4. […] All are given distilled water except those with special prescriptions and ends after 12 weeks testing.

aorta AS = assay: High-fats rabbits: aortic lesion and lipoprotein content in aorta; assay type: in vivo; conditions: 8 weeks, DSP 4 g/kg/Day, Simvastatin 1 mg/kg/Day
Procedure: as §4
1.2 Experimental Methods and Standards. (1) Examination of Aortic Lesion. Drugs were given to the animals for 8 weeks, and then the animals were killed. The aortas were removed and the unnecessary membranes and fats discarded. The aortas were cut open along the mid line. One-fifth of the aorta was removed for lipid examination. […] The percentage of the lesion part was calculated, and a grading was given. […] The average thickness of the interior membrane spot plates was measured by microscopic parameter. […] The number of blood vessels with spot plates in the coronary artery and the lesion percentage (lesion percentage=the number of blood vessels with lesion/the total number of blood vessels in each transect X100%) were observed, calculated and graded according to the blocking of the blood vessels with spot plates. The average points were calculated by accumulation.

SOD, MDA = assay: High-fats rabbits: SOD activity and MDA content in blood serum and liver; assay type: in vivo; conditions: 8 weeks, DSP 4 g raw medicine/kg/d, Simvastatin 1 mg/kg/d
Procedure: Method. The experimental groups were divided into: (1) Normal control group. Normal feeding; (2) High-fats feeding group: high-fats feeding.
All were fed for 4 weeks. weight and lipoprotein content in the blood were measured. […] Medicine was given to the rabbits through the stomach, according to prescription. The same volume of distilled water was given to the normal control group and high-fats feeding group. Testing ended after 12 weeks.

serum lipoprotein = assay: High-fats rabbits: lipoprotein in blood serum; assay type: in vivo; conditions: DSP 4 g/kg/day, Simvastatin 1 mg/kg/day
Procedure: (1) Normal control group (8 rabbits) normal feeding; (2) High-fats group: High-fats feeding. All were fed for 4 weeks. Weight and lipoprotein in the blood were measured. […] High-fats control group, 2. High-dosage of DSP group (4 g dosage/kg/day), 3. […] All are given distilled water except those with special prescriptions and ends after 12 weeks testing.

## Cn1c(=O)c2[nH]cnc2n(C)c1=O [Aminophylline]
cAMP [1]; 30 min after treatment
  blood plasma cAMP content: 20.7 ± 3.2 Pmol/ml plasma
cAMP [1]; 60 min after treatment
  blood plasma cAMP content: 21.1 ± 3.8 Pmol/ml plasma
cAMP [2]
  cAMP content in rabbit platelets: 15.4 ± 3.9 pmol/mg

## CC(=O)Oc1ccccc1C(=O)O [aspirin]
Blood stasis; Post-
  Air flow: 1.40 ± 0.10
  Hb: 4.28 ± 1.07
  LB: 8.21 ± 0.3
  P: 1.67 ± 0.7
Blood stasis; Pre-
  Air flow: 1.82 ± 0.17
  LB: 10.38 ± 1.96
  P: 1.89 ± 0.12
Blood stasis; Pre-, 25 patients DSP, 28 aspirin
  Hb: 6.12 ± 1.56
thrombosis; Aspirin 30, DSP 50
  Average aggregation percentage: 10.6 ± 2.1
thrombosis; Aspirin 30, DSP 50 (head: g/kg)
  Inhibition %: 49.2%
Blood viscosity; after treatment (6 months)
  AIR: 1.40 ± 0.10
  η Hb: 4.28 ± 1.07 mpa · s
  η Lb: 8.21 ± 1.03 mpa · s
  η P: 1.67 ± 0.07 mpa · s
Blood viscosity; before treatment
  AIR: 1.82 ± 0.17
  η Hb: 6.12 ± 1.56 mpa · s
  η Lb: 10.38 ± 1.96 mpa · s
  η P: 1.89 ± 0.12 mpa · s
Arterial IMT; after treatment (6 months)
  IMT: 2.1 ± 0.7 mm
Arterial IMT; before treatment
  IMT: 2.0 ± 0.8 mm

## CCOC(=O)C1=C(COCCN)NC(C)=C(C(=O)OC)C1c1ccccc1Cl (centres unmarked) [Amlodipine]
insulin; 60 min, after treatment
  Blood glucose: 9.76 ± 0.52 mmol
  Blood insulin: 121.65 ± 1.89 mU/L
insulin; 60 min, before treatment
  Blood glucose: 9.86 ± 0.65 mmol
  Blood insulin: 122.01 ± 1.91 mU/L
insulin; 120 min, after treatment
  Blood glucose: 8.01 ± 0.76 mmol
  Blood insulin: 92.56 ± 1.66 mU/L
insulin; 120 min, before treatment
  Blood glucose: 7.69 ± 0.81 mmol
  Blood insulin: 91.62 ± 1.96 mU/L
insulin; Empty, after treatment
  Blood glucose: 5.27 ± 0.59 mmol
  Blood insulin: 25.31 ± 1.73 mU/L
insulin; Empty, before treatment
  Blood glucose: 5.19 ± 0.56 mmol
  Blood insulin: 25.34 ± 1.74 mU/L
Plasma ET; after treatment (4 weeks)
  Plasma ET: 42.6 ± 4.78 ng/L
Plasma ET; before treatment
  Plasma ET: 57.2 ± 7.31 ng/L

## COc1ccc(CCN(C)CCCC(C#N)(c2ccc(OC)c(OC)c2)C(C)C)cc1OC (centres unmarked) [verapamil]
Cardiac arrhythmia
  cardiac arrhythmia (irregularity) percentage: 71.4%

## CCC(C)(C)C(=O)O[C@H]1C[C@@H](C)C=C2C=C[C@H](C)[C@H](CC[C@@H]3C[C@@H](O)CC(=O)O3)[C@H]21 [Simvastatin]
Liver TG
  Liver Coefficient: 5.16 ± 0.60 g/100 g weight
Aorta AS
  TC content in aorta: 4.93 ± 2.62
SOD, MDA
  MDA, blood serum: 5.63 ± 1.30 nmol/mL
  SOD, Liver: 11.62 ± 0.38*** 10^3 u/g tissue weight
  SOD, blood serum: 816.7 ± 77.2 u/ml
Serum lipoprotein; 2 weeks after dosage
  LDC-C, blood serum: 19.54 ± 5.71 mmol/L
  TC, blood serum: 27.06 ± 4.46 mmol/L
  TC/HDL-C, blood serum: 32.29 ± 7.39
  TG, blood serum: 1.85 ± 0.55 mmol/L
  VLDC-C, blood serum: 6.66 ± 1.65 mmol/L
Serum lipoprotein; 4 weeks after dosage
  LDC-C, blood serum: 18.22 ± 3.37 mmol/L
  TC, blood serum: 26.1 ± 3.03 mmol/L
  TC/HDL-C, blood serum: 19.6 ± 4.38
  TG, blood serum: 1.80 ± 0.31 mmol/L
  VLDC-C, blood serum: 6.54 ± 0.74 mmol/L
Serum lipoprotein; 8 weeks after dosage
  LDC-C, blood serum: 17.78 ± 5.69 mmol/L
  TC, blood serum: 26.3 ± 4.40 mmol/L
  TC/HDL-C, blood serum: 22.3 ± 6.54
  TG, blood serum: 2.70 ± 0.77 mmol/L
  VLDC-C, blood serum: 7.30 ± 2.05 mmol/L
Serum lipoprotein; A/fter dosage
  LDC-C, blood serum: 19.69 ± 8.33 mmol/L
  TC, blood serum: 26.92 ± 7.72 mmol/L
  TC/HDL-C, blood serum: 31.68 ± 10.14
  TG, blood serum: 2.04 ± 1.00 mmol/L
  VLDC-C, blood serum: 6.35 ± 1.42 mmol/L
Serum lipoprotein; B/f testing
  LDC-C, blood serum: 0.87 ± 0.21 mmol/L
  TC, blood serum: 2.27 ± 0.18 mmol/L
  TC/HDL-C, blood serum: 2.72 ± 0.85
  TG, blood serum: 0.72 ± 0.15 mmol/L
  VLDC-C, blood serum: 0.51 ± 0.27 mmol/L
